Patent US8084602B2, “Porphyrin derivatives and their use in photodynamic therapy” (Destiny Pharma Limited, priority 2002, dated 2011)

How the values were obtained:
[1] = system: bacterial cells compared to human skin cells; experiment: Selectivity for bacteria compared to human skin cells; assay type: cell-based; conditions: at a dose of 0.01 μM
Procedure: (§1) For the further investigation of the exemplary compounds (Table 2), the following protocol was adopted: • (i) Bacteria (S. aureus BAA-44 and E. coli 25922) were grown in brain heart infusion (BHI) broth until they reached the stationary phase of growth. • (ii) The cells were harvested by centrifugation (3000 g for 15 min) with a table centrifuge, washed with 10 mM PBS at pH 7.4 containing 2.7 mM KCl and 0.14 M NaCl and suspended in PBS at an optical density of 0.7 at 650 nm corresponding to 10^8-10^9 cells/ml. • (iii) The bacteria, at the desired cell density (˜10^8 cells/ml) were incubated for 5 min in the dark with various concentrations of the exemplary compounds. • (iv) At the end of the incubation period the cells were washed three times with PBS, suspended in PBS, transferred into a 96-well microtitre plate (200 μl/well) and illuminated for 15 min with the Waldmann light source (15.2 mW/cm^2; 13.7 J/cm^2). The cells were illuminated from the bottom of the plate laying it on the glass cover of the lamp. • (v) After illumination, cell survival was determined by plating serially diluted aliquots of treated and untreated (i.e. no exemplary compound or light present) cells onto brain heart agar (BHA) and counting the number of colonies after 18-24 h incubation at 37° C.
(§2) Test compounds were screened for toxicity against cultured human skin cells using normal human epidermal keratinocytes (NHEK) and normal human dermal fibroblasts (NHDF), purchased from CellSystems Biotechnologie GmbH, Germany.
The NHEK and NHDF cells were used between passages 3 and 10. The cells were seeded with 7.5 and/or 15×10^4 cells/well (microtitreplate) and allowed to attach overnight in an incubator (37° C., 5% CO2). After incubation with different concentrations of the selected photosensitisers, the cells were illuminated for fifteen minutes (Light source 236, Waldmann; 15.2 mW/cm^2, 13.7 J/cm^2) and then incubated for 24 hours in the dark.
(§3) Phototoxicity was tested by standard MTT-assay (Mossman et al., 1983, Immunological Methods 65:55-63). MTT is an indicator of metabolically active cells. Dependent on enzyme activity in mitochondria a colour reaction can be visualised, which can be measured by ELISA reader (540 nm). The cell viability data were normalised, i.e. the OD values of cells after PDT without photosensitisers were adjusted to one. Each experiment was repeated three times.

[2] = system: normal human dermal fibroblasts (NHDF); experiment: Toxicity against human skin cells, MTT-assay; assay type: cell-based
Procedure: as §2
(§4) The NHEK and NHDF cells were used between passages 3 and 10. The cells were seeded with 7.5 and/or 15×10^4 cells/well (microtitreplate) and allowed to attach overnight in an incubator (37° C., 5% CO2). […]
as §3

[3] = system: normal human epidermal keratinocytes (NHEK); experiment: Toxicity against human skin cells, MTT-assay; assay type: cell-based
Procedure: as §2, §4, §3

[4] = Chemical stability, qualitative stress tests (HPLC, LC-MS); assay type: physicochemical; conditions: solid, aqueous solution and PBS; 7 days each at 50° C., 70° C., 90° C.
Procedure: The following HPLC methodology was established for the analysis of the exemplary compounds of the invention.
The method involves detection by UV at a wavelength of 420 nm, which is very specific for these compounds. In order to monitor impurities not related to the porphyrin structure (and therefore not absorbing at 420 nm) UV spectra of the whole chromatograms were also recorded between 200 nm and 700 nm by DAD (diode array detector) in certain experiments.
Qualitative stress tests were undertaken on the exemplary compounds of the invention. Analysis was undertaken by HPLC & LC-MS. The compounds were stress tested in solid form, in an aqueous solution and a solution made up in phosphate-buffered saline buffer. The samples were initially incubated for 7 days at 50° C. and a sample removed for testing. The samples were then incubated for a further 7 days at 70° C., samples removed as before and the samples incubated further for 7 days at 90° C. HPLC analysis of freshly prepared solutions was undertaken and compared to the samples after 7, 14 and 21 days incubation. A visual comparison of the chromatograms was then undertaken and the content of the main products and by-products as area percentage values determined (see FIG. 11).

[5] = system: S. aureus ATCC BAA-44 (a methicillin resistant S. aureus); experiment: Cell survival (colony forming unit) with or without illumination; assay type: cell-based, Staphylococcus aureus; conditions: for dark toxicity against BAA-44: absence of light, at the concentrations tested (FIG. 4); for Log reduction: S. aureus
Procedure: (§5) The toxic effects of exemplary compounds of the invention against two bacterial strains, the Gram negative bacterium Escherichia coli (strain ATCC 25922) and the Gram positive bacterium Staphylococcus aureus (methicillin-resistant strain ATTC BAA-44), were evaluated by measuring the extent of growth inhibition (bacteriostatic effect) and growth […] (cytocidal effect) in the dark and upon light exposure. Initial compound screening was undertaken using white light [390-740 nm] (150 mW/cm^2) for various timepoints of a concentration of 3 μM (see Table 1). Further experiments were undertaken on those compounds identified from this initial screen using a light source emitting light at a wavelength between 417-420 nm at 15.2 mW/cm^2, 13.68 J/cm^2 (Waldmann Eclairage SA, France) (see Table 20.
as §1
(§6) the above colony forming unit (CFU) protocol was also used to investigate the photodynamic activity of very low concentrations of the compounds of the invention.

[6] = system: E. coli ATCC 25922; experiment: as above; assay type: cell-based, Escherichia coli; conditions: for Log reduction: E. coli
Procedure: as §5, §1, §6

[7] = dark toxicity, 1 μM, no illumination
[8] = dark toxicity, 10 μM, no illumination
[9] = photodynamic activity (light toxicity), 0.01 μM, illumination 15 min
[10] = photodynamic activity (light toxicity), 0.1 μM, illumination 15 min
[11] = photodynamic activity (light toxicity), 1 μM, illumination 15 min
[12] = dark toxicity (no illumination), 1 μM
[13] = dark toxicity (no illumination), 10 μM
[14] = photodynamic activity, 0.01 μM, illumination 15 min
[15] = photodynamic activity, 1 μM, illumination 15 min
[16] = dark toxicity (no illumination), 0.01 μM

| Compound | toxicity to bacterial cells compared to human skin cells [1] | Survival [2, 7] [%] | Survival [2, 8] [%] | Survival [2, 9] [%] | Survival [2, 10] [%] | Survival [2, 11] [%] | Survival [3, 8] [%] | Survival [3, 9] [%] | Survival [3, 10] [%] | chemical stability under stress test [4] | dark toxicity against BAA-44 [5] | Log reduction [5, 14] | further results |
| --- | --- | --- | --- | --- | --- | --- | --- | --- | --- | --- | --- | --- | --- |
| CN(C)CCC[N+](C)(C)CCCOc1ccc(-c2c3nc(cc4ccc([nH]4)c(-c4ccc(OCCC[N+](C)(C)CCCN(C)C)cc4)c4nc(cc5ccc2[nH]5)C=C4)C=C3)cc1.[Cl-].[Cl-] [Compound 8, 5,15-bis-(4-{3-[(3-Dimethylamino-propyl)-dimethylammonio]-propyloxy}-phenyl)-porphyrin dichloride] | preferentially toxic to bacterial cells compared to human skin cells | 100 | 68 | 100 | 12 | 3 | 97 | 98 | 33 | less stable than Compounds 10 and 12 | negligible | 3 | Survival [3, 11]: 0.5%; Log reduction [5, 12]: <1 (<10^−1); Log reduction [5, 13]: <1 (<10^−1); Log reduction ([5]; photodynamic activity, 0.1 μM, illumination 15 min): 3 (10^−3); Log reduction [5, 15]: 6 (10^−6); Log reduction [6, 16]: <1 (<10^−1); Log reduction [6, 13]: 2 (10^−2); Log reduction [6, 14]: <1 (<10^−1); Log reduction ([6]; photodynamic activity, 10 μM, illumination 15 min): >6 (>10^−6) |
| C[N+](C)(C)CCCOc1ccc(-c2c3nc(cc4ccc([nH]4)c(-c4ccc(OCCC[N+](C)(C)C)cc4)c4nc(cc5ccc2[nH]5)C=C4)C=C3)cc1.[Cl-].[Cl-] [Compound 10, 5,15-bis-[4-(3-Trimethylammonio-propyloxy)-phenyl]-porphyrin dichloride] | preferentially toxic to bacterial cells compared to human skin cells | 100 | 91 | 80 | 8 | 0.5 | 51 | 62 | 1.0 | good stability | negligible | >4 (>10^−4) | Survival [3, 7]: 100%; bacteria killed ([5]; BAA-44, 0.0025 μM, with light): 90%; Concentration of Compound 10 required to obtain a 3 log reduction in cells (μM) ([5]; Staphylococcus aureus ATCC BAA-44): 0.005 μM; Log reduction [5, 16]: <1 (<10^−1); Concentration of Compound 10 required to obtain a 3 log reduction in cells (μM) ([6]; E. coli ATCC 25922): 0.1 μM; Log reduction [6, 12]: <1 (<10^−1); Log reduction [6, 15]: >6 (>10^−6) |
